Data reported in article PMC6131557, “Selective Cytotoxicity of Dihydroorotate Dehydrogenase Inhibitors to Human Cancer Cells Under Hypoxia and Nutrient-Deprived Conditions” (Frontiers in Pharmacology, 2018).
Read-outs that look alike come from different tables or passages of the source.

Columns and labels:
KM-12 = experiment: 39-cancer cell panel assay: KM-12; assay type: cell-based, human; conditions: Co
HCT-15 = experiment: 39-cancer cell panel assay: HCT-15; assay type: cell-based; conditions: Homo sapiens, Co
SF-268 = experiment: 39-cancer cell panel assay: SF-268; assay type: cell-based; conditions: Homo sapiens, CNS
A549 = experiment: 39-cancer cell panel assay: A549; assay type: cell-based; conditions: Homo sapiens, Lu
HCC2998 = experiment: 39-cancer cell panel assay: HCC2998; assay type: cell-based; conditions: Homo sapiens, HCC 2998, Co
MKN7 = experiment: 39-cancer cell panel assay: MKN7; assay type: cell-based; conditions: Homo sapiens, MKN-7, St
[1] = target: T1, human dihydroorotate dehydrogenase (HsDHODH) (Homo sapiens, UniProt Q02127); experiment: Inhibition of recombinant human DHODH enzyme activity; assay type: biochemical; conditions: recombinant human DHODH; purified enzyme fixed at 10 nM; read-out: IC50 (nM), inhibition of human DHODH
T1 construct: made in house

NCI-H23 = experiment: 39-cancer cell panel assay: NCI-H23; assay type: cell-based; conditions: Homo sapiens, Lu
RXF-631L = experiment: 39-cancer cell panel assay: RXF-631L; assay type: cell-based; conditions: Homo sapiens, Re
Complex II = target: T2, Complex II (Bos taurus, UniProt P35720+Q3T189+Q95123); experiment: Succinate:quinone reductase (complex II) activity, bovine mitochondria; assay type: biochemical
T2 construct: from tissue; host or cells: bovine mitochondrial fraction / sub-mitochondrial particles

DU-145 = experiment: 39-cancer cell panel assay: DU-145; assay type: cell-based; conditions: Homo sapiens, Pro
St-4 = experiment: 39-cancer cell panel assay: St-4; assay type: cell-based; conditions: Homo sapiens
NCI-H522 = experiment: 39-cancer cell panel assay: NCI-H522; assay type: cell-based; conditions: Homo sapiens, Lu
OVCAR-4 = experiment: 39-cancer cell panel assay: OVCAR-4; assay type: cell-based; conditions: Homo sapiens, Ov
NCI-H226 = experiment: 39-cancer cell panel assay: NCI-H226; assay type: cell-based; conditions: Homo sapiens, Lu
SK-OV-3 = experiment: 39-cancer cell panel assay: SK-OV-3; assay type: cell-based; conditions: Homo sapiens
SNB-75 = experiment: 39-cancer cell panel assay: SNB-75; assay type: cell-based; conditions: Homo sapiens, CNS
PC-3 = experiment: 39-cancer cell panel assay: PC-3; assay type: cell-based; conditions: Homo sapiens, Pro
Complexes I–III = experiment: NADH-cytochrome c reductase (complexes I–III) activity, bovine mitochondria; assay type: biochemical
Method in brief: (§1)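 Bovine mitochondrial fractions served as enzyme source. NADH-cytochrome c reductase (complexes I–III) and succinate-cytochrome c reductase (complexes II–III) activities were measured by established published methods.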

DLD-1 cells = experiment: Cytotoxicity assay (Cell Counting Kit-8 / WST-8) on DLD-1 cells; assay type: cell-based, human; conditions: for IC50: Homo sapiens
ACHN = experiment: 39-cancer cell panel assay: ACHN; assay type: cell-based; conditions: Homo sapiens, Re
SNB-78 = experiment: 39-cancer cell panel assay: SNB-78; assay type: cell-based; conditions: Homo sapiens, CNS
LOX-IMVI = experiment: 39-cancer cell panel assay: LOX-IMVI; assay type: cell-based; conditions: Homo sapiens, Me
BSY-1 = experiment: 39-cancer cell panel assay: BSY-1; assay type: cell-based; conditions: Homo sapiens, Br
MKN74 = experiment: 39-cancer cell panel assay: MKN74; assay type: cell-based; conditions: Homo sapiens, MKN-74, St
OVCAR-5 = experiment: 39-cancer cell panel assay: OVCAR-5; assay type: cell-based; conditions: Homo sapiens, Ov
MDA-MB-231 = experiment: 39-cancer cell panel assay: MDA-MB-231; assay type: cell-based; conditions: Homo sapiens, Br
DMS114 = experiment: 39-cancer cell panel assay: DMS114; assay type: cell-based; conditions: Homo sapiens, DMS-114, Lu
SF-295 = experiment: 39-cancer cell panel assay: SF-295; assay type: cell-based; conditions: Homo sapiens, CNS
OVCAR-8 = experiment: 39-cancer cell panel assay: OVCAR-8; assay type: cell-based; conditions: Homo sapiens, Ov
MKN1 = experiment: 39-cancer cell panel assay: MKN1; assay type: cell-based; conditions: Homo sapiens, MKN-1, St
OVCAR-3 = experiment: 39-cancer cell panel assay: OVCAR-3; assay type: cell-based; conditions: Homo sapiens, Ov
Complex I = experiment: NADH dehydrogenase (complex I) activity, bovine mitochondria; assay type: biochemical; conditions: at 5 μM
Method in brief: as §1

HBC-4 = experiment: 39-cancer cell panel assay: HBC-4; assay type: cell-based; conditions: Homo sapiens, HBC4, Br
NCI-H460 = experiment: 39-cancer cell panel assay: NCI-H460; assay type: cell-based; conditions: Homo sapiens, Lu
HT-29 = experiment: 39-cancer cell panel assay: HT-29; assay type: cell-based; conditions: Homo sapiens, Co
MKN28 = experiment: 39-cancer cell panel assay: MKN28; assay type: cell-based; conditions: Homo sapiens, MKN-28, St
Complex II–III = experiment: Succinate-cytochrome c reductase (complexes II–III) activity, bovine mitochondria; assay type: biochemical
Method in brief: as §1

HBC-5 = experiment: 39-cancer cell panel assay: HBC-5; assay type: cell-based; conditions: Homo sapiens, HBC5, Br
[2] = read-out: IC50 (μM) DLD-1 (24 h) Hypoxia nutrient (-), DLD-1, 24 h, hypoxia (1% oxygen), nutrient (-)
[3] = read-out: IC50 (μM) DLD-1 (24 h) Normoxia nutrient (+), DLD-1, 24 h, normoxia, nutrient (+)
[4] = DLD-1, 48 h, hypoxia (1% oxygen), nutrient (-), read-out: IC50 (μM) DLD-1 (48 h) Hypoxia nutrient (-)
[5] = DLD-1, 48 h, normoxia, nutrient (+), read-out: IC50 (μM) DLD-1 (48 h) Normoxia nutrient (+)

T2 sequence (P31039 45-665 partner limits assumed): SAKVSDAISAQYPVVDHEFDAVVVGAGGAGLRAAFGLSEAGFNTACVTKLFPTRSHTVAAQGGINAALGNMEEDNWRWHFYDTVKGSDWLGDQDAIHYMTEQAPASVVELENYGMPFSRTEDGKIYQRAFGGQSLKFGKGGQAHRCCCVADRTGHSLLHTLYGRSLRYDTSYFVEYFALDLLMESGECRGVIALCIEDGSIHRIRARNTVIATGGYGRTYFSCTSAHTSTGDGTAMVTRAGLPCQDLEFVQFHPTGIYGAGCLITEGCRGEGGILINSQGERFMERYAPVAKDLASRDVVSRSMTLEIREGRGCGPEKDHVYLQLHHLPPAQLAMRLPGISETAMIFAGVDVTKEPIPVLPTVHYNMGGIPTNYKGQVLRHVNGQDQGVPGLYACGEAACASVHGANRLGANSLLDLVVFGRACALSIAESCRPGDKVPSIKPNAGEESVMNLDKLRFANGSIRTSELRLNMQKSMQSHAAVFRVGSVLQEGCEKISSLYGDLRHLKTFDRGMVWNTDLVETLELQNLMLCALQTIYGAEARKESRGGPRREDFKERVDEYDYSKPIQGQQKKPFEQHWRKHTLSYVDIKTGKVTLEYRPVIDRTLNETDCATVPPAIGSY
T2 sequence (Q3T189 29-280): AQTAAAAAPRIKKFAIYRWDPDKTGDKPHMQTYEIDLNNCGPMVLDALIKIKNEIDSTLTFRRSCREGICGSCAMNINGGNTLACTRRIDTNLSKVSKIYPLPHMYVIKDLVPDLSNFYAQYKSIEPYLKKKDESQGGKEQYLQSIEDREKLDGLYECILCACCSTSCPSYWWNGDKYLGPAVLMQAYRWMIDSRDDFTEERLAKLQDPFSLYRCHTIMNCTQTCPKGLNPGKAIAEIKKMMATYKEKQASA
T2 sequence (P35720 30-169): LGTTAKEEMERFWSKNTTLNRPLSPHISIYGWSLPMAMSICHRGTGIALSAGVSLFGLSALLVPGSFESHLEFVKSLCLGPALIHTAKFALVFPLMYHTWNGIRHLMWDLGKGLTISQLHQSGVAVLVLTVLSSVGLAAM
T2 sequence (Q95123 56-158): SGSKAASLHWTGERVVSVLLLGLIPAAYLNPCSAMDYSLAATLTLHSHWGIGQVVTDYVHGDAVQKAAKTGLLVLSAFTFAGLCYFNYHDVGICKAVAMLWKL
T1 sequence (Q02127 whole entry): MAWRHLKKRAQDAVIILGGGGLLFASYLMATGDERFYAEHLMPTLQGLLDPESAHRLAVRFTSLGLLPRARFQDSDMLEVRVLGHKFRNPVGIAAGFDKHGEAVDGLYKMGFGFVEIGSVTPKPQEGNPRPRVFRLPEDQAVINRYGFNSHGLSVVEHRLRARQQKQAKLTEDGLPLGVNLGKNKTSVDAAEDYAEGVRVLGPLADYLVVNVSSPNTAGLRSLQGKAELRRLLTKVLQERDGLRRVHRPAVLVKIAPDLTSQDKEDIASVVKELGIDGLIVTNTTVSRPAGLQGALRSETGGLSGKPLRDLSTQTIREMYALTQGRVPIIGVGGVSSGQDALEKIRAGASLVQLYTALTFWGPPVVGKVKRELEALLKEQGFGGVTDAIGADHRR

`C/C(=C\Cc1c(O)c(Cl)c(C)c(C=O)c1O)CC/C=C(\C)[C@@H]1CC(=O)C(C)(C)O1` [Compound 1, ascofuranone] was tested, and the “GI50 (μM) KM-12” value (KM-12) was 9.3 µM, the GI50 (HCT-15) was 1.3 µM and the GI50 (SF-268) was 7 µM. For the same compound, the GI50 (A549) was 7.6 µM, the GI50 (HCC2998) was 17 µM and the GI50 (MKN7) was 15 µM. For the same compound, the IC50 [1] was 37.5 ± 12 nM, the GI50 (NCI-H23) was 15 µM and the GI50 (RXF-631L) was 12 µM. The inhibition at 5 µM (Complex II) was 1.5 ± 7.6%, the GI50 (DU-145) was 11 µM and the GI50 (St-4) was 14 µM. It also gave a GI50 (NCI-H522) of 8.4 µM, a GI50 (OVCAR-4) of 5.9 µM and a GI50 (NCI-H226) of 15 µM. The GI50 (SK-OV-3) was 13 µM, the GI50 (SNB-75) was 23 µM and the GI50 (PC-3) was 13 µM. It also gave an IC50 (Complexes I–III) of 1.5 ± 0.04 µM, an IC50 (DLD-1 cells; [2]) of 1.2 ± 0.79 µM and an IC50 (DLD-1 cells; [3]) of over 100 µM. It also gave an IC50 (DLD-1 cells; [4]) of 0.24 ± 0.057 µM, an IC50 (DLD-1 cells; [5]) of over 100 µM and a GI50 (ACHN) of 10 µM. It also gave a GI50 (SNB-78) of 23 µM, a GI50 (LOX-IMVI) of 2.8 µM and a GI50 (BSY-1) of 16 µM. For the same compound, the GI50 (MKN74) was 13 µM, the GI50 (OVCAR-5) was 7.6 µM and the GI50 (MDA-MB-231) was 7.4 µM. The GI50 (DMS114) was 19 µM, the GI50 (SF-295) was 5.3 µM and the GI50 (OVCAR-8) was 9.5 µM. The GI50 (MKN1) was 14 µM, the GI50 (OVCAR-3) was 8 µM and the “Inhibition (%) Complex I” value (Complex I) was 11 ± 5.8%. For the same compound, the GI50 (HBC-4) was 9.1 µM, the GI50 (NCI-H460) was 2 µM and the GI50 (HT-29) was 6.6 µM. For the same compound, the GI50 (MKN28) was 9.7 µM, the IC50 (Complex II–III) was 13 ± 1.7 µM and the GI50 (HBC-5) was 28 µM.
For `CC(C)=CCC/C(C)=C/CC/C(C)=C/Cc1c(O)c(Cl)c(C)c(C=O)c1O` [Compound 8], the “GI50 (μM) KM-12” value (KM-12) was 2.0 µM, the GI50 (HCT-15) was 0.043 µM and the GI50 (SF-268) was 0.93 µM. For the same compound, the GI50 (A549) was 0.77 µM, the GI50 (HCC2998) was 12 µM and the GI50 (MKN7) was 2.1 µM. It also gave an IC50 [1] of about 5 nM, a GI50 (NCI-H23) of 2.8 µM and a GI50 (RXF-631L) of 11 µM. For the same compound, the inhibition at 5 µM (Complex II) was 8.2 ± 4.9%, the GI50 (DU-145) was 0.26 µM and the GI50 (St-4) was 1.1 µM. It also gave a GI50 (NCI-H522) of 1.2 µM, a GI50 (OVCAR-4) of 13 µM and a GI50 (NCI-H226) of 10 µM. The GI50 (SK-OV-3) was 37 µM, the GI50 (SNB-75) was 0.7 µM and the GI50 (PC-3) was 1.2 µM. For the same compound, the IC50 (Complexes I–III) was 0.048 ± 0.001 µM, the “IC50 fold lower than 1” value (DLD-1 cells; DLD-1, 24 h, hypoxia nutrient-deprived, versus compound 1) was 20 fold and the IC50 (DLD-1 cells; [2]) was 0.066 ± 0.042 µM. For the same compound, the IC50 (DLD-1 cells; [3]) was 81 ± 24 µM, the IC50 (DLD-1 cells; [4]) was 0.024 ± 0.003 µM and the IC50 (DLD-1 cells; [5]) was 38 ± 3.3 µM. For the same compound, the “selectivity ratio, microenvironment versus normal culture condition” value (DLD-1 cells; hypoxia and nutrient-deprived versus normal culture) was “over 1000 fold”, the GI50 (ACHN) was 0.79 µM and the GI50 (SNB-78) was 16 µM. For the same compound, the GI50 (LOX-IMVI) was 0.61 µM, the GI50 (BSY-1) was 13 µM and the GI50 (MKN74) was 1.9 µM. It also gave a GI50 (OVCAR-5) of 6.6 µM, a GI50 (MDA-MB-231) of 2.8 µM and a GI50 (DMS114) of 2.5 µM. It also gave a GI50 (SF-295) of 1.3 µM, a GI50 (OVCAR-8) of 0.97 µM and a GI50 (MKN1) of 8.2 µM. For the same compound, the GI50 (OVCAR-3) was 1.9 µM, the “Inhibition (%) Complex I” value (Complex I) was 43 ± 1.8% and the GI50 (HBC-4) was 2.2 µM. It also gave a GI50 (NCI-H460) of 0.21 µM, a GI50 (HT-29) of 1.1 µM and a GI50 (MKN28) of 1.3 µM. It also gave an IC50 (Complex II–III) of 0.12 ± 0.013 µM and a GI50 (HBC-5) of 16 µM.
